{"source": "patent US6153434A", "about": "“Methods for the intracellular delivery of substances” (University of Florida, priority 1999, dated 2000)", "key": {"[1]": {"test_system": "CHO and SKnSH cells", "experiment": "Cytotoxicity of liposome/DNA complexes, both cell lines (FIG. 6)", "assay_type": "cell-based", "procedure": "FIGS. 6A and 6B show the toxicity assays of cytotoxicity of the liposome/DNA complexes was studied in CHO and SKnSH cells. A fixed dose of 1 μg/well of pDNA was mixed with increasing amount of cationic liposomes and used in the toxicity assay. Cell viability was calculated as percentage of survival cells as stated in the Methods section. FIG. 6A: Toxicity in CHO cells. FIG. 6B: Toxicity in SKnSH cells. .diamond-solid.CHDTAEA/DOPE, .box-solid.CHSTAEA/DOPE; .tangle-solidup.DC-Chol/DOPE. Data is shown as mean (S. D. (n=3).\nToxicity Assay of CHDTAEA, CHSTAEA and DC-Chol: The toxicity of CHDTAEA/DOPE, CHSTAEA/DOPE and DC-Chol/DOPE in the CHO and SKnSH cell line was determined using a CARE-LASS (a calcein release assay). Before the assay, cells were plated in a 96 well plate (1(10^5 cells/well) and grown to 60-80% confluence overnight. To test the toxicity of the DNA/liposome complexes, a fixed amount of DNA (1 μg/well) was used to complex with increasing amount of liposomes. The ratios of DNA to liposome of different treatments were the same as the ratios used in transfection studies. The cytotoxicity of three liposomes were measured and expressed according to our previous procedure (Tang, F., J. A. Hughes (1998) Biochem Biophys Res Commun 242:141-145). Each experiment was performed in triplicate and repeated at least twice."}, "[2]": {"test_system": "COS 1 cells", "experiment": "Luciferase gene transfection (second set of experiments)"}, "[3]": {"test_system": "293 cells", "experiment": "Luciferase gene transfection", "assay_type": "cell-based"}, "[4]": {"test_system": "CHO cells", "experiment": "Luciferase gene transfection (second set of experiments)", "assay_type": "cell-based, Chinese hamster", "procedure": "(§1) When DNA transfection was carried out in serum free media, the DNA/liposome complexes usually incubated with cells for about 4-5 hours. […] Biophys. Acta 1111, 239-246). For gene transfection in growth media containing 10% FBS, the toxicity of complexes may be alleviated, and also the transfection may be inhibited by enzymes or slowed down by negatively charged macromolecules.\nBiophys. Acta 1111, 239-246)."}, "[5]": {"test_system": "COS-1 cells", "experiment": "Luciferase gene transfection", "assay_type": "cell-based"}, "[6]": {"experiment": "Aggregation of transfection complexes during transfection", "assay_type": "physicochemical", "procedure": "The lack of physical stability of liposome/DNA complexes affects the gene transfection activity (Caplen, N. J., E. Kinrade, F. Sorgi, X Gao, D. Gruenert, C. Couttelle, L. Huang, E. W . F. W. Alton, R. Williamson (1995) Gene Ther. 2:603). […] The interaction force between primary amino groups and DNA is not as strong as the interaction force of a quaternary amino group with DNA and is dependent on the local environment.\nas §1"}, "[7]": {"test_system": "SKnSH cells", "experiment": "Luciferase gene transfection", "assay_type": "cell-based"}, "[8]": {"test_system": "CHO cells", "experiment": "Transfection efficiency assay (green fluorescence protein, pUF2 DNA)", "assay_type": "cell-based, Chinese hamster", "conditions": "optimal transfection ratio", "procedure": "Transfection efficiency assay: The optimal weight ratio for transfection of each liposome was used. […] Complexes were incubated with CHO cells in serum free media for 4.5 hour then the media was changed to growth media and further incubated for 20 hours. Transfection efficiency was determined by counting the number of green fluorescence cells compared with all cells in the field of vision under (20 magnification using a Nikon Diaphot inverted microscope). Each transfection was done in triplicate and three separate counts were made for each well."}, "[9]": {"test_system": "COS 1 cells and CHO cells", "experiment": "Luciferase gene transfection (second set of experiments), COS 1 and CHO", "assay_type": "cell-based", "conditions": "serum free media"}, "[10]": {"test_system": "plasmid DNA", "experiment": "Dissociation of DNA from DNA/liposome complexes by glutathione, agarose gel electrophoresis", "assay_type": "physicochemical", "conditions": "in both reductive and non-reductive environments, 20 hours", "procedure": "Dissociation of DNA from DNA/liposome complexes by glutathione: One μg of plasmid DNA was dissolved in 10 (L of phosphate-buffer saline (PBS). Cationic liposomes […] or CHSTAEA/DOPE were added to pDNA solution at the increasing weight ratios of 2/1, respectively. All calculations of the weight of liposomes in this paper were based on the weight of cationic lipids only. After the complexes were incubated for 30 minutes at room temperature, 10 (L of 20 mM of glutathione in PBS (pH=7.3) was added to the mixture to reach a final concentration of glutathione of 10 mM. The mixtures were incubated at 37° C. for 20 hours. Released DNA was visualized by 1% agarose gel electrophoresis.\nDNA was complexed with a disulfide cationic liposome CHDTAEA/DOPE or its non-disulfide cationic liposome analog CHSTAEA/DOPE at the cationic lipid to DNA ratio of 2/1. […] In the presence of 10 mM of glutathione, >50% of DNA was released from complexes after the incubation. […] The complexes with the ratios of cationic liposome/DNA from 3/1 to 5/1 were also tested in the release assay with similar same results."}, "[11]": {"conditions": "CHO cells, growth media containing 10% FBS"}, "[12]": {"conditions": "CHO, serum free, optimal ratio of each liposome"}, "[13]": {"conditions": "weight ratio 10/1 (charge ratio 6/1(+/-))"}}, "note": "Like-named read-outs stand apart in the source and are kept apart here."}
{"smiles": "CC(C)CCC[C@@H](C)[C@H]1CC[C@H]2[C@@H]3CC=C4C[C@@H](OC(=O)NCCN(C)C)CC[C@]4(C)[C@H]3CC[C@]12C", "note": "[DC-Chol, Cholesteryl N-(dimethylaminoethyl)carbamate, reference compound]", "values": [{"measurement": "cytotoxicity vs CHDTAEA", "setting": "[1]; FIG. 6", "result": "much greater cytotoxicity"}]}
{"smiles": "CCCCCCCC/C=C\\CCCCCCCC(=O)OC[C@H](COC(=O)CCC(=O)OCCSSCCOC(=O)C(N)CCCN)OC(=O)CCCCCCC/C=C\\CCCCCCCC", "note": "(some centres unmarked) [DOGSDSO, 1',2'-dioleoyl-sn-glycero-3'-succinyl-2-hydroxyethyl disulfide ornithine conjugate]", "values": [{"measurement": "transfection activity in the presence of serum", "setting": "[2]; 10% FBS, COS-1 cells", "result": "equally active in the presence of 10% FBS"}, {"measurement": "luciferase gene expression, 2 g of pDNA, vs 7 g of pDNA with DOGSHDO", "setting": "[2]; COS 1", "result": 3, "unit": "time higher"}, {"measurement": "luciferase gene expression", "setting": "[2]; COS 1, 2 g of pDNA", "result": "1.18E+09"}, {"measurement": "transfection activity in growth media vs serum free media", "setting": "[2]; COS 1, 12 hours", "result": "comparable to transfection activity in serum free media"}, {"measurement": "transfection activity (luciferase)", "setting": "[2]; COS 1, growth media (10% FBS), 12 hours", "result": "5.9×10^8 RLU/mg protein"}, {"measurement": "highest transfection activity, times higher than DOGSHDO", "setting": "[2]; COS 1, growth media with serum", "result": 3, "unit": "times"}, {"measurement": "highest transfection activity, times higher than DOTAP", "setting": "[2]; COS 1, growth media with serum", "result": 2, "unit": "times"}, {"measurement": "amount of DNA at saturation of system", "setting": "[2]; COS 1, lipid/DNA 10/1", "result": 2, "unit": "g"}, {"measurement": "transgene expression on increase of DNA from 2 g to 7 g", "setting": "[2]; COS 1, lipid/DNA 10/1", "result": "no significant increase of transgene expression (p>0.2319)"}, {"measurement": "transfection activity, times higher than DOGSHDO", "setting": "[2]; COS 1, serum free, optimal ratio of each liposome", "result": 11, "unit": "times"}, {"measurement": "transfection activity, times higher than DOTAP", "setting": "[2]; COS 1, serum free, optimal ratio, DOTAP at 1:1", "result": 6, "unit": "times"}, {"measurement": "amount of DNA at saturation of system", "setting": "[2]; COS-1 cells, optimal DNA/liposome ratio", "result": "2e-06", "unit": "g"}, {"measurement": "expression of luciferase at lipid/DNA ratios 1/1, 2/1, 3/1, 4/1 (w/w)", "setting": "[2]; growth media with serum", "result": "not statistically different (p>0.2782)"}, {"measurement": "effect on transfection activity compared to DOGSHDO", "setting": "[3]", "result": "greater than 50 fold"}, {"measurement": "gene expression on further increase of DNA to 7 μg", "setting": "[4]; CHO", "result": "decrease of gene expression (p<0.0232)"}, {"measurement": "gene expression, 5 μg vs 6 μg of DNA", "setting": "[4]; CHO", "result": "no significant difference of gene expression between the treatments of 5 μg of DNA and 6 μg of DNA (p>0.6528)"}, {"measurement": "luciferase gene expression, 5 μg of DNA, vs 7 μg of DNA by DOGSHDO", "setting": "[4]; CHO", "result": 14, "unit": "times higher"}, {"measurement": "transfection time of highest transfection activity", "setting": "[4]; [11]", "result": 12, "unit": "h"}, {"measurement": "luciferase gene expression", "setting": "[4]; CHO, 5 μg of DNA", "result": "9.03E+08"}, {"measurement": "optimal transfection activity, times higher than DOTAP or DOGSHDO", "setting": "[4]; CHO, growth media with serum", "result": 3, "unit": "times"}, {"measurement": "transfection efficiency vs DOGSHDO", "setting": "[4]; CHO, lipid/DNA 10/1", "result": "higher transfection efficiency"}, {"measurement": "transfection activity, times higher than DOGSHDO", "setting": "[4]; [12]", "result": 3, "unit": "times"}, {"measurement": "transfection activity, times higher than DOTAP", "setting": "[4]; [12]", "result": 2, "unit": "times"}, {"measurement": "amount of DNA at saturation of system", "setting": "[4]; CHO, transferred by 50 μg of DOGSDSO", "result": 5, "unit": "µg"}, {"measurement": "effect on transfection activity compared to DOGSHDO", "setting": "[5]", "result": "greater than 50 fold"}, {"measurement": "aggregation of transfection complexes", "setting": "[6]; [13]", "result": "did not aggregate during transfection"}, {"measurement": "increase in transfection activity compared to DOGSHDO", "setting": "[7]", "result": 4, "unit": "fold"}, {"measurement": "transgene expression efficiency (green fluorescence protein)", "setting": "[8]", "result": "20-25%"}, {"measurement": "effect of further increase of liposome amount above 10/1", "setting": "[9]", "result": "caused cytotoxicity and decreased the transfection activity"}, {"measurement": "optimal weight ratio of cationic lipid to DNA in transfection", "setting": "[9]", "result": "10/1"}]}
{"smiles": "CCCCCCCC/C=C\\CCCCCCCC(=O)OCC(COC(=O)CCC(=O)OCCCCCCOC(=O)[C@@H](N)CCCN)OC(=O)CCCCCCC/C=C\\CCCCCCCC", "note": "(some centres unmarked) [DOGSHDO, 1',2'-dioleyl-sn-glycero-3'-succinyl-1,6-hexanediol ornithine conjugate]", "values": [{"measurement": "saturation of system", "setting": "[2]; 7 μg of DNA, COS-1 cells", "result": "did not reach the saturation"}, {"measurement": "luciferase gene expression", "setting": "[2]; COS 1, 7 g of pDNA", "result": "3.84E+08"}, {"measurement": "transgene expression with increasing complexes", "setting": "[2]; COS 1, lipid/DNA 10/1", "result": "increased with the increase of DNA/DOGSHDO complexes (p<0.0071) for the system did not reach saturation"}, {"measurement": "luciferase expression, 7 μg of DNA, vs 2 μg of DNA by DOGSDSO", "setting": "[2]; COS-1 cells", "result": "only one third of that of 2 μg of DNA transferred by DOGSDSO liposome"}, {"measurement": "gene expression with increasing amount of DNA/liposome", "setting": "[4]; CHO", "result": "gene expression kept increasing"}, {"measurement": "transfection time of highest transfection activity", "setting": "[4]; [11]", "result": 12, "unit": "h"}, {"measurement": "luciferase gene expression", "setting": "[4]; CHO, 7 μg of DNA", "result": "6.5E+07"}, {"measurement": "aggregation of transfection complexes", "setting": "[6]; [13]", "result": "did not aggregate during transfection"}, {"measurement": "transgene expression efficiency (green fluorescence protein)", "setting": "[8]", "result": "6-7%"}, {"measurement": "effect of further increase of liposome amount above 10/1", "setting": "[9]", "result": "caused cytotoxicity and decreased the transfection activity"}, {"measurement": "optimal weight ratio of cationic lipid to DNA in transfection", "setting": "[9]", "result": "10/1"}]}
{"smiles": "CCCCCCCC/C=C\\CCCCCCCC(=O)OCC(C[N+](C)(C)C)OC(=O)CCCCCCC/C=C\\CCCCCCCC", "note": "(centres unmarked) [DOTAP, 1,2-dioleoyl-3-trimethylammonium-propane, reference compound]", "values": [{"measurement": "transfection activity from 2 hours to 48 hours transfection time", "setting": "[4]; [11]", "result": "not statistically different from 2 hours to 48 hours transfection time (p>0.1220)"}, {"measurement": "aggregation of transfection complexes", "setting": "[6]; weight ratios of DOTAP to DNA bigger than 2:1", "result": "form large aggregates"}, {"measurement": "transgene expression efficiency (green fluorescence protein)", "setting": "[8]", "result": "5-6%"}]}
{"smiles": "CC(C)CCC[C@@H](C)[C@H]1CC[C@H]2[C@@H]3CC=C4C[C@@H](OC(=O)CCC(=O)NCCN(CCN)CCN)CC[C@]4(C)[C@H]3CC[C@]12C", "note": "[CHSTAEA, Cholesteryl hemisuccinyl tris(aminoethyl)amine]", "values": [{"measurement": "cytotoxicity vs CHDTAEA", "setting": "[1]", "result": "much greater cytotoxicity"}, {"measurement": "release of DNA from complexes", "setting": "[10]", "result": "did not release DNA at any conditions after incubation for 20 hours"}]}
